From patent publication US11298367B2, “Prodrugs of substituted triazole derivatives and uses thereof” (Bayer Aktiengesellschaft, priority 2017, dated 2022)
Read-outs that look alike come from different tables or passages of the source.

Test system: human platelets
Assay: Inhibition of vasopressin induced aggregation of human platelets
Assay type: cell-based
Conditions: human platelet rich plasma, AVP 100 nM
Description: B-5. Inhibition of Vasopressin Induced Aggregation of Human Platelets for Verification of Prodrug Conversion into Drug
Human platelets endogenously express the V1a receptor. […] Therefore, platelets enriched from human blood may serve as a V1a expressing tissue for pharmacological studies with vasopressin antagonists.
To verify the conversion of prodrugs into the respective drugs, the prodrugs are incubated with and without alkaline phosphatase. Cleavage of the phosphate moiety by alkaline phosphatase converts the prodrug into the drug. As prodrug and underlying respective drug show different IC50 values, the value of the prodrug after alkaline phosphatase treatment resembles the IC50 of the respective drug.
100 μl of test compound at a concentration of 100 μM are incubated for 15 min with 500 units alkaline phosphatase at 37° C. in modified Tyrode buffer (134 mM NaCl, […], 0.34 mM NaH2PO4*H2O, 2.9 mM KCl, 5 mM HEPES, 5 mM Glucose) and stored at 4° C. until further use in the platelet aggregation assay.
Platelet-rich plasma (PRP) is obtained by centrifugation of the blood sample at 140 g for 20 min at room temperature. The resulting pellet is discarded and the PRP further centrifuged (11.000 rpm, 1 min) to produce platelet-poor plasma (PPP). Platelet aggregation is measured turbidimetrically using an aggregometer (APACT 4). The reaction is followed by monitoring changes in light transmission on 178 μL PRP aliquots, under continuous stirring at 37° C., against PPP control. Various concentrations of vasopressin antagonists (in 2 μL) are added to PRP 5 min before the addition of 20 μL AVP (final concentration 100 nM). The inhibitory effects of the compounds are determined by measuring the maximal amplitude of the aggregation curve compared with the control response. IC50 values are calculated on the basis of a concentration-response inhibition curve by an iterative nonlinear regression program. All values are expressed as mean values (Table 3A).

[1] = with alkaline phosphatase, read-out: IC50 with AP
[2] = without alkaline phosphatase, read-out: IC50 without AP

Compound | IC50 [1] | IC50 [2]
NC(=O)c1nc(Cn2nc(-c3ccc(Cl)cc3)n(C[C@H](OP(=O)(O)O)C(F)(F)F)c2=O)nn1-c1ncccc1C(F)(F)F [Example 1, (2S)-3-[1-({5-Carbamoyl-1-[3-(trifluoromethyl)pyridin-2-yl]-1H-1,2,4-triazol-3-yl}methyl)-3-(4-chlorophenyl)-5-oxo-1,5-dihydro-4H-1,2,4-triazol-4-yl]-1,1,1-trifluoropropan-2-yl Dihydrogen Phosphate] | 0.0127 µM | 0.145 µM
NC(=O)c1nc(Cn2nc(-c3ccc(Cl)cc3)n(C[C@H](O)C(F)(F)F)c2=O)nn1-c1ncccc1C(F)(F)F [Example 4A, 3-({3-(4-Chlorophenyl)-5-oxo-4-[(2S)-3,3,3-trifluoro-2-hydroxypropyl]-4,5-dihydro-1H-1,2,4-triazol-1-yl}methyl)-1-[3-(trifluoromethyl)pyridin-2-yl]-1H-1,2,4-triazole-5-carboxamide] | 0.0102 µM | 0.0211 µM
